# Data taken from ChEMBL document CHEMBL5608163, “Structure modification of anoplin for fighting resistant bacteria” (Eur J Med Chem, 2024).
# Numbered stars: 1 amine (or outer) side, 2 acyl side, 3 side chain; on linkers, the order of the positions; unused ones are H or OH. Square brackets hold non-standard residues; d marks the D form. Peptide text beside a SMILES is read from it. Gly(N(CH2)2(3-indolyl)) = O=C(O)CNCCc1c[nH]c2ccccc12; N(1-naphthylmethyl)Gly = O=C(O)CNCc1cccc2ccccc12; X3 = O=C(CN(CC(c1ccccc1)c1ccccc1)[*:1])[*:2]; NCyclohexylmethylGly = O=C(O)CNCC1CCCCC1; X2 = CCC(C)N(CC(=O)[*:2])[*:1]; N(iPr)Gly = CC(C)NCC(=O)O; Nphe = O=C(O)CNCc1ccccc1; NBuGly = CCCCNCC(=O)O; Nleu = CC(C)CNCC(=O)O; βAla = NCCC(=O)O
# Experiments:
# Staphylococcus aureus [1] = test: Antibacterial activity against Staphylococcus aureus ATCC 25923 assessed as reduction in bacterial growth measured after 24 hrs by Mueller-Hinton broth based two-fold serial dilution method; assay type: functional
# Escherichia coli [2] = test: Antibacterial activity against Escherichia coli ATCC 25922 assessed as reduction in bacterial growth measured after 24 hrs by Mueller-Hinton broth based two-fold serial dilution method; assay type: functional
# Staphylococcus aureus [3] = test: Antimicrobial activity against Staphylococcus aureus assessed as reduction in microbial growth by broth microdilution method; assay type: functional
# Erythrocyte [4] = test: Hemolytic activity in mouse RBC; assay type: toxicity, cell-based
# Escherichia coli [5] = test: Antimicrobial activity against Escherichia coli assessed as reduction in microbial growth by broth micro-dilution method; assay type: functional
# Klebsiella pneumoniae = test: Antibacterial activity against Klebsiella pneumoniae ATCC 700603 assessed as reduction in bacterial cell growth incubated for 18 hrs by two fold serial microdilution method; assay type: functional
# Escherichia coli [6] = test: Antibacterial activity against Escherichia coli ATCC 25922 assessed as reduction in bacterial cell growth incubated for 18 hrs by two fold serial microdilution method; assay type: functional
# [7] = test system: Staphylococcus epidermidis; test: Antibacterial activity against Staphylococcus epidermidis ATCC 12228 assessed as reduction in bacterial cell growth incubated for 18 hrs by two fold serial microdilution method; assay type: functional
# Pseudomonas aeruginosa = test: Antibacterial activity against Pseudomonas aeruginosa ATCC 27853 assessed as reduction in bacterial cell growth incubated for 18 hrs by two fold serial microdilution method; assay type: functional
# Erythrocyte [8] = test: Hemolytic activity in mouse Red blood cells incubated for 1 hr; assay type: toxicity, cell-based
# Staphylococcus aureus [9] = test: Antibacterial activity against Staphylococcus aureus ATCC 25923 assessed as reduction in bacterial cell growth incubated for 18 hrs by two fold serial microdilution method; assay type: functional
# Acinetobacter baumannii = test: Antibacterial activity against Acinetobacter baumannii ATCC 19606 assessed as inhibition in bacterial growth incubated for 20 to 24 hrs by CLSI based broth microdilution method; assay type: functional; conditions: time 20-24 hrs
MIC (Staphylococcus aureus [3]),MIC (Escherichia coli [5]),SMILES,HC10 (Erythrocyte [4]),other results
,,CC[C@H](C)[C@H](NC(=O)[C@H](CCCNC(=N)N)NC(=O)[C@H](CCCCN)NC(=O)[C@@H](N)CC(C)C)C(=O)N[C@@H](CCCCN)C(=O)N[C@H](C(=O)N[C@@H](CC(C)C)C(=O)N[C@@H](CC(C)C)C(N)=O)[C@@H](C)O (H-LKRIKTLL-NH2),,MIC (Staphylococcus aureus [1]): > 31.6 µM; MIC (Escherichia coli [2]): 31.6 µM
50 µM,25 µM,CC[C@H](C)[C@H](NC(=O)[C@H](CCCNC(=N)N)NC(=O)[C@H](CCCCN)NC(=O)[C@H](CC(C)C)NC(=O)[C@H](CC(C)C)NC(=O)CNCCc1c[nH]c2ccccc12)C(=O)N[C@@H](CCCCN)C(=O)N[C@H](C(=O)N[C@@H](CC(C)C)C(=O)N[C@@H](CC(C)C)C(N)=O)[C@@H](C)O (H-[Gly(N(CH2)2(3-indolyl))]LLKRIKTLL-NH2),> 50 µM,
25 µM,12.5 µM,CC[C@H](C)[C@H](NC(=O)[C@H](CCCNC(=N)N)NC(=O)[C@H](CCCCN)NC(=O)[C@H](CC(C)C)NC(=O)[C@H](CC(C)C)NC(=O)CNCc1cccc2ccccc12)C(=O)N[C@@H](CCCCN)C(=O)N[C@H](C(=O)N[C@@H](CC(C)C)C(=O)N[C@@H](CC(C)C)C(N)=O)[C@@H](C)O (H-[N(1-naphthylmethyl)Gly]LLKRIKTLL-NH2),> 50 µM,
> 100 µM,> 100 µM,CC[C@H](C)[C@H](NC(=O)[C@H](CCCNC(=N)N)NC(=O)[C@H](CCCCN)NC(=O)[C@H](CC(C)C)NC(=O)[C@H](CC(C)C)NC(=O)CNC(C)C)C(=O)N[C@@H](CCCCN)C(=O)N[C@H](C(=O)N[C@@H](CC(C)C)C(=O)N[C@@H](CC(C)C)C(N)=O)[C@@H](C)O (H-[N(iPr)Gly]LLKRIKTLL-NH2),> 50 µM,
> 100 µM,100 µM,CCCCNCC(=O)N[C@@H](CC(C)C)C(=O)N[C@@H](CC(C)C)C(=O)N[C@@H](CCCCN)C(=O)N[C@@H](CCCNC(=N)N)C(=O)N[C@H](C(=O)N[C@@H](CCCCN)C(=O)N[C@H](C(=O)N[C@@H](CC(C)C)C(=O)N[C@@H](CC(C)C)C(N)=O)[C@@H](C)O)[C@@H](C)CC (H-[NBuGly]LLKRIKTLL-NH2),> 50 µM,
50 µM,25 µM,CC[C@H](C)[C@H](NC(=O)[C@H](CCCNC(=N)N)NC(=O)[C@H](CCCCN)NC(=O)[C@H](CC(C)C)NC(=O)[C@H](CC(C)C)NC(=O)CNCC1CCCCC1)C(=O)N[C@@H](CCCCN)C(=O)N[C@H](C(=O)N[C@@H](CC(C)C)C(=O)N[C@@H](CC(C)C)C(N)=O)[C@@H](C)O (H-[NCyclohexylmethylGly]LLKRIKTLL-NH2),> 50 µM,
> 100 µM,> 100 µM,CC[C@H](C)[C@H](NC(=O)[C@H](CCCNC(=N)N)NC(=O)[C@H](CCCCN)NC(=O)[C@H](CC(C)C)NC(=O)[C@H](CC(C)C)NC(=O)CNCC(C)C)C(=O)N[C@@H](CCCCN)C(=O)N[C@H](C(=O)N[C@@H](CC(C)C)C(=O)N[C@@H](CC(C)C)C(N)=O)[C@@H](C)O (H-[Nleu]LLKRIKTLL-NH2),> 50 µM,
> 100 µM,50 µM,CC[C@H](C)[C@H](NC(=O)[C@H](CCCNC(=N)N)NC(=O)[C@H](CCCCN)NC(=O)[C@H](CC(C)C)NC(=O)[C@H](CC(C)C)NC(=O)CNCc1ccccc1)C(=O)N[C@@H](CCCCN)C(=O)N[C@H](C(=O)N[C@@H](CC(C)C)C(=O)N[C@@H](CC(C)C)C(N)=O)[C@@H](C)O (H-[Nphe]LLKRIKTLL-NH2),> 50 µM,
> 100 µM,> 100 µM,CCC(C)NCC(=O)N[C@@H](CC(C)C)C(=O)N[C@@H](CC(C)C)C(=O)N[C@@H](CCCCN)C(=O)N[C@@H](CCCNC(=N)N)C(=O)N[C@H](C(=O)N[C@@H](CCCCN)C(=O)N[C@H](C(=O)N[C@@H](CC(C)C)C(=O)N[C@@H](CC(C)C)C(N)=O)[C@@H](C)O)[C@@H](C)CC (stereo partly drawn) (H-[X2]LLKRIKTLL-NH2),> 50 µM,
25 µM,12.5 µM,CC[C@H](C)[C@H](NC(=O)[C@H](CCCNC(=N)N)NC(=O)[C@H](CCCCN)NC(=O)[C@H](CC(C)C)NC(=O)[C@H](CC(C)C)NC(=O)CNCC(c1ccccc1)c1ccccc1)C(=O)N[C@@H](CCCCN)C(=O)N[C@H](C(=O)N[C@@H](CC(C)C)C(=O)N[C@@H](CC(C)C)C(N)=O)[C@@H](C)O (H-[X3]LLKRIKTLL-NH2),> 50 µM,
,,CC[C@H](C)[C@H](NC(=O)[C@H](CCCNC(=N)N)NC(=O)[C@H](CCCCN)NC(=O)[C@H](CC(C)C)NC(=O)[C@H](CC(C)C)NC(=O)CCN)C(=O)N[C@@H](CCCCN)C(=O)N[C@H](C(=O)N[C@@H](CC(C)C)C(=O)N[C@@H](CC(C)C)C(N)=O)[C@@H](C)O (H-[βAla]LLKRIKTLL-NH2),,MIC (Klebsiella pneumoniae): 128 µM; MIC (Escherichia coli [6]): 32 µM; MIC [7]: 8 µM; MIC (Pseudomonas aeruginosa): 8 µM; HC10 (Erythrocyte [8]): > 256 µM; MIC (Staphylococcus aureus [9]): 128 µM; MIC (Acinetobacter baumannii): 128 µM
,,CC[C@H](C)[C@H](NC(=O)[C@H](CCCNC(=N)N)NC(=O)[C@H](CCCCN)NC(=O)[C@H](CC(C)C)NC(=O)[C@H](CC(C)C)NC(=O)CCN)C(=O)N[C@@H](CCCCN)C(=O)NCCC(=O)N[C@@H](CC(C)C)C(=O)N[C@@H](CC(C)C)C(N)=O (H-[βAla]LLKRIK[βAla]LL-NH2),,MIC (Klebsiella pneumoniae): 64 µM; MIC (Escherichia coli [6]): 64 µM; MIC [7]: 64 µM; MIC (Pseudomonas aeruginosa): 64 µM; HC10 (Erythrocyte [8]): > 256 µM; MIC (Staphylococcus aureus [9]): 128 µM; MIC (Acinetobacter baumannii): > 128 µM
